The test system of data set [1] is NLRP6 inflammasome. Description: Colon explants cultured with metabolites (IL-18 ELISA, caspase-1 immunoblot, gene expression). The class given is cell-based, mouse. As to conditions: for IL-18 protein levels: Nlrp3-/- explants; for IL-18 suppression with increasing doses: colonic explant-based validation screen; for IL-18 transcript (mRNA) levels / caspase-1 cleavage / processing: colonic explants; for caspase-1 cleavage / processing: 12 hours incubation, immunoblot p45/p20; for suppression of IL-18 secretion, metabolite screen: cultured WT colon explants. As to the method:
Colons were excised and washed thoroughly with PBS, homogenized in RIPA buffer containing protease inhibitors, incubated for 20 min in 4° C. and centrifuged for 20 min, 14,000 rpm at 4° C. Samples were separated on 15% acrylamide gels and transferred onto nitrocellulose membranes. Western blot analysis was performed using anti-caspase 1 p20 polyclonal antibody (Adipogen, AG-20B-0042B-C100) and Goat anti mouse antibody (Jackson ImmunoResearch, 115-035-003). Band density was calculated using ImageJ software. Colon pieces, 0.5 cm long, from the proximal colon were removed, rinsed with PBS, and weighed. The tissue explants were cultured for 24 hrs in DMEM medium containing 10% FBS, L-glutamine, penicillin, and streptomycin at 37° C. Culture medium was collected, centrifuged and the resulting supernatant stored in aliquots at -20° C. Concentrations of IL-18 in the serum or culture supernatants were measured using ELISA. […] Samples were then washed and plates were incubated with anti-mouse IL-18-biotin antibody ([…]-6 MBL) for 1 hour and HRP-Avidin (BioLegend) for 1 hour before quantification. […] For AMP induction in-vitro, 3 μg IL-18 were added to colon explants for 7 hours, then the explants were maintained in RNAlater and RNA was extracted. Tissues were preserved in RNAlater solution (Ambion) and subsequently homogenized in Tri Reagent (Fox et al.). RNA was purified according to the manufacturer's instructions. Two microgram of total RNA was used to generate cDNA (HighCapacity cDNA Reverse Transcription kit; Applied Biosystems). RealTime-PCR was performed using gene-specific primer/probe sets (Applied Biosystems) and Kapa Probe Fast qPCR kit (Kapa Biosystems) on a Viia7 instrument (Applied Biosystems). PCR conditions were 95° C. for 20 s, followed by 40 cycles of 95° C. for 3 s and 60° C. for 30 s. Data were analyzed using the deltaCt method with hprt serving as the reference housekeeping gene.
On the technique in general: An ELISA detects its analyte on a solid surface through an enzyme-linked reagent.

The subject of data set [2] is NLRP6 inflammasome. As to conditions: for taurine-mediated increase in IL-18 production: organoids, histamine and spermine supplemented in addition to taurine. As for the experimental part:
(I, J) IL-18 production by WT (I) and Nlrp6^−/− (J) colonic organoids incubated with either taurine or taurine+histamine+spermine.
(K) Representative organoid images from experiments shown in (I) and (J).

The subject of another data set is commensal bacteria. Description: Anaerobic microbiota cultures supplemented with metabolites. Set-up: species or system mouse. Particulars: anaerobic culturing.
Another data set has as its system intestinal microbiota. The data set can be described thus: 16S analysis of microbiota of mice given metabolites in drinking water. The class given is in vivo, mouse. The source says:
Frozen fecal samples were processed for DNA isolation using the MoBio PowerSoil kit according to the manufacturer's instructions. For the 16S rRNA gene PCR amplification, ing of the purified fecal DNA was used for PCR amplification. Amplicons spanning the variable region 1/2 (V1/2) of the 16S rRNA gene were generated by using the following barcoded primers: Fwd 5′-XXXXXXXXAGAGTTTGATCCTGGCTCAG-3′ (SEQ ID NO: 1), Rev 5′-[…]-3′ (SEQ ID NO: 2), where X represents a barcode base. The reactions were subsequently pooled and cleaned (PCR clean kit, Promega), and the PCR products were then sequenced on an Illumina MiSeq in 500 bp paired-end method. The reads were then processed using the QIIME (Quantitative Insights Into Microbial Ecology, www(dot)qiime(dot)org) analysis pipeline as described (Caporaso et al., 2010; Elinav et al., 2011). In brief, fasta quality files and a mapping file indicating the barcode sequence corresponding to each sample were used as inputs, reads were split by samples according to the barcode, taxonomical classification was performed using the RDP-classifier, and an OTU table was created. Closed-reference OTU mapping was employed using the Greengenes database. Rarefaction was used to exclude samples with insufficient count of reads per sample. Sequences sharing 97% nucleotide sequence identity in the V2 region were binned into operational taxonomic units (97% ID OTUs). For beta-diversity, weighted unifrac measurements were plotted according to the two principal coordinates based on 1,000 reads per sample. The OTU tables used for our analyses are made accessible online.

Consider `NCCc1c[nH]cn1` [histamine], for which, in the data set on NLRP6 inflammasome [1], the IL-18 protein levels entry is listed as “decreased”, the “IL-18 suppression with increasing doses” value was “concentration-dependent IL-18 suppressive functions”, the “IL-18 transcript (mRNA) levels” value was “no change” and the “caspase-1 cleavage / processing” value is “reduced”. Moreover, the “suppression of IL-18 secretion, metabolite screen” value in the data set on NLRP6 inflammasome [1] was “strongest suppressors”. In the data set on NLRP6 inflammasome [2], the “organoid (spheroid) growth or morphology” value is “not affecting” and the “taurine-mediated increase in IL-18 production” value was “diminished”. The “composition of anaerobic microbiota cultures” value with commensal bacteria is recorded as “did not feature significant compositional alterations”. The “composition of the intestinal microbiota” value in the data set on intestinal microbiota (WT mice) is on record as “induced compositional changes”.

Take `NCCCNCCCCNCCCN` [spermine]: in the data set on NLRP6 inflammasome [1], the IL-18 protein levels entry is given as “decreased”, the “IL-18 suppression with increasing doses” value was “concentration-dependent IL-18 suppressive functions”, the “IL-18 transcript (mRNA) levels” value was “no change” and the “caspase-1 cleavage / processing” value is “reduced”. Further, the “suppression of IL-18 secretion, metabolite screen” value in the data set on NLRP6 inflammasome [1] is listed as “strongest suppressors”. Also, in the data set with NLRP6 inflammasome [2], the “organoid (spheroid) growth or morphology” value is “not affecting” and the “taurine-mediated increase in IL-18 production” value is on record as “diminished”. Moreover, the “composition of anaerobic microbiota cultures” value in the data set on commensal bacteria was “did not feature significant compositional alterations”. In addition, the “composition of the intestinal microbiota” value in the data set on intestinal microbiota (WT mice) was “induced compositional changes”.

Consider `NCCS(=O)(=O)O` [taurine], for which, in the data set on NLRP6 inflammasome [1] (WT explants cultured for 8 hours), the “AMPs (Ang4) expression” value is recorded as “induced upregulation”. The “dependence of IL-18 induction on NLRP6 / NLRP3” value in the data set on NLRP6 inflammasome [1] (WT, Nlrp6-/- and Nlrp3-/- colon explants) is “dependent on NLRP6, but not on NLRP3”. For the same molecule, the “inflammasome suppression (IL-18 production) by spermine or histamine upon concomitant taurine” value in the data set on NLRP6 inflammasome [1] (colon explants cultured with histamine and spermine, with addition of taurine) is given as “rescued”. Moreover, the “caspase-1 cleavage / processing” value in the data set with NLRP6 inflammasome [1] is reported as “enhanced”. Besides, the IL-18 induction result in the data set with NLRP6 inflammasome [1] (sterile WT colonic explants, metabolite screen and increasing doses) was “strongest dose-dependent inductive activity”. For the same molecule, in the data set on NLRP6 inflammasome [2], the “organoid (spheroid) growth or morphology” value is recorded as “not affecting”. The IL-18 secretion result in the data set on NLRP6 inflammasome [2] (WT organoids) is on record as “induced”. In addition, in the data set with commensal bacteria, the “composition of anaerobic microbiota cultures” value is reported as “did not feature significant compositional alterations”. For the same molecule, the “composition of the intestinal microbiota” value is listed as “did not occur” in the data set with intestinal microbiota (Asc-/- or Nlrp6-/- mice) and “induced compositional changes” in the data set with intestinal microbiota (WT mice).
